The values below come from patent US6413539B1, “Hydrogel-forming, self-solvating absorbable polyester copolymers, and methods for use thereof” (Poly-Med, Inc., priority 1996, dated 2002).

Structures are written as SMILES.

The nature of this data set: Binding of acidic organic drugs to anion-exchanger. Type of data set: physicochemical. As to conditions: sodium salt of drug; anion-exchanger of Example XIII. As for the experimental part:
The preparation of the anion-exchanger is achieved in two steps. […] In the second step, the practically non-ionic microparticles are incubated in hot dilute solution (^˜80° C.) of hexanediamine of known concentration in dioxane under argon for 2-4 hours. The concentration of the diamine in dioxane is determined by acidimetry. When the reaction practically ceases to take place, the aminated microparticles are separated by filtration, rinsed with dioxane, and dried under reduced pressure. The binding capacity of the anion-exchanger (aminated particles) is determined by (1) elemental analysis for nitrogen and (2) extent of binding to naproxin by measuring the extent of drug removed from a dilute solution using HPLC. The latter is confirmed by release of the immobilized naproxin with a dilute sodium hydroxide solution of known concentration.
Typical examples of acidic organic drugs that are available as sodium salt are ganciclovir, naproxin, and ibuprofen. In typical experiments, the aforementioned drugs are bound to the anion-exchanger of Example XIII following a similar scheme to that used in the same example describing the binding of naproxin.
`Nc1nc(O)c2ncn(COC(CO)CO)c2n1` [Ganciclovir, ganciclovir]: the “% Drug bound to anion-exchanger” value came to 6%.

`COc1ccc2cc([C@H](C)C(=O)O)ccc2c1` [Naproxin, naproxin]: the “% Drug bound to anion-exchanger” value is on record as 11%.

On to `CC(C)Cc1ccc(C(C)C(=O)O)cc1` (stereo not drawn) [Ibuprofen, ibuprofen], for which the “% Drug bound to anion-exchanger” value is 8%.
